Laboratory results reported in PMC10056443, “Derivatives of Amaryllidaceae Alkaloid Ambelline as Selective Inhibitors of Hepatic Stage of Plasmodium berghei Infection In Vitro” (Pharmaceutics, 2023).
Like-named read-outs stand apart in the source and are kept apart here.

How the values were obtained:
[1] = system: hepatic stage of P. berghei; test: In vitro activity against P. berghei hepatic stages (luciferase-expressing sporozoites in Huh-7 cells, bioluminescence); assay type: cell-based, Plasmodium berghei; conditions: Plasmodium berghei; for activity at 1 µM / activity at 10 µM: DMSO = 100, read-out: INFECTION Ø screening
Procedure: Activity against the hepatic stage of P. berghei infection was assessed using the human hepatoma cell line Huh-7 (deposited at the Japanese Collection of Research Bioresources under JCRB0403). The protocol was previously comprehensively described by Prudêncio et al. and by Ploemen et al.. […] Cells were seeded in 96-well plates at a density of 1 × 10^4 cells per well in 100 µL of culture medium and incubated at 37 °C with 5% CO2 for approximately 18 h. […] The culture medium was substituted by infection medium with diluted compounds 1 hour in advance of infection. Luciferase-expressing P. berghei sporozoites (PbA-LuciGFPcon spz) were freshly obtained through the dissection of salivary glands from infected female Anopheles stephensi mosquitoes. Sporozoites were added to the cells at 1:1 ratio, i.e., 1 × 10^4 sporozoites were added per well, and then subjected to centrifugation at 1800× g for 5 min. The plate was then incubated for 46 h at 37 °C with 5% CO2, at which time Huh-7 cell confluency was indirectly assessed by the alamarBlue assay (Invitrogen, Waltham, MA, USA), as reported in the manufacturer’s protocol. Parasite load was assessed 48 h post-infection by a bioluminescence assay, as reported by the manufacturer (Biotium, Fremont, CA, USA). GraphPad Prism 8 (GraphPad Software, Inc., La Jolla, CA, USA) was used to obtain IC50 values using nonlinear regression analysis to fit the dose-response curves normalized results.

Huh-7 cell line = test: Huh-7 cell confluency by alamarBlue assay during hepatic-stage test; assay type: cell-based
Procedure: Activity against the hepatic stage of P. berghei infection was assessed using the human hepatoma cell line Huh-7 (deposited at the Japanese Collection of Research Bioresources under JCRB0403). The protocol was previously comprehensively described by Prudêncio et al. and by Ploemen et al.. Briefly, cell culture medium consisted of 1640 RPMI medium supplemented with 10% v/v fetal calf serum, 1% v/v L-glutamine, 1% v/v nonessential amino acids, 1% v/v penicillin/streptomycin, and 10 mM HEPES, pH 7. Cells were seeded in 96-well plates at a density of 1 × 10^4 cells per well in 100 µL of culture medium and incubated at 37 °C with 5% CO2 for approximately 18 h. […] The culture medium was substituted by infection medium with diluted compounds 1 hour in advance of infection. Luciferase-expressing P. berghei sporozoites (PbA-LuciGFPcon spz) were freshly obtained through the dissection of salivary glands from infected female Anopheles stephensi mosquitoes. Sporozoites were added to the cells at 1:1 ratio, i.e., 1 × 10^4 sporozoites were added per well, and then subjected to centrifugation at 1800× g for 5 min. The plate was then incubated for 46 h at 37 °C with 5% CO2, at which time Huh-7 cell confluency was indirectly assessed by the alamarBlue assay (Invitrogen, Waltham, MA, USA), as reported in the manufacturer’s protocol. Parasite load was assessed 48 h post-infection by a bioluminescence assay, as reported by the manufacturer (Biotium, Fremont, CA, USA). GraphPad Prism 8 (GraphPad Software, Inc., La Jolla, CA, USA) was used to obtain IC50 values using nonlinear regression analysis to fit the dose-response curves normalized results.

[2] = Cytotoxicity assessment in vitro (MTT assay); assay type: cell-based; conditions: human
Procedure: (§1) HepG2 cells of human hepatocellular carcinoma (ATCC HB-8065; passage 20–25), purchased from Health Protection Agency Culture Collections (ECACC, Salisbury, UK), were cultured in Minimum Essential Medium Eagle supplemented with 10% v/v fetal bovine serum and 1% v/v L-glutamine solution (Sigma-Aldrich, St. Louis, MO, USA) at 37 °C in a humidified atmosphere containing 5% CO2. For passaging, the cells were treated with trypsin/EDTA (Sigma-Aldrich, St. Louis, MO, USA) at 37 °C and then harvested. For the cytotoxicity evaluation, the cells treated with the test substances were used, while untreated HepG2 cells served as a control group. The cells were seeded in a 96-well plate at a density of 1 × 10^4 cells per well and incubated for 24 h. All tested compounds were dissolved in DMSO to prepare 10 mM stock solutions and diluted to the desired concentration just before the cell treatment. Cytotoxicity of all studied derivatives was screened at 10 μM concentration, and all samples were measured in triplicates. Positive and negative controls were also included. Plates were incubated for 24 h in a humidified atmosphere containing 5% CO2 at 37 °C. After the incubation, a solution of thiazolyl blue tetrazolium bromide (Sigma-Aldrich, St. Louis, MO, USA) in RPMI 1640 medium without phenol red (BioTech, Prague, Czech Republic) was added and incubated for 3 h in a humidified atmosphere containing 5% CO2 at 37 °C. Afterwards, formazan crystals were dissolved in DMSO, and the absorbance of samples was recorded at 570 nm (Synergy Neo2 Multi-Mode Reader NEO2SMALPHAB; BioTek, Winooski, VT, USA).

HepG2 cells = test: Cytotoxicity assessment in vitro (MTT assay); assay type: cell-based
Procedure: as §1

[3] = system: P. falciparum NF54 ring-stage synchronized cultures; test: In vitro activity against P. falciparum blood stages (flow cytometry, SYBR green I); assay type: cell-based, Plasmodium falciparum; conditions: Control = 7.76333, 48 h
Procedure: Activity against the blood stage of P. falciparum infection was assessed by flow cytometry analysis following the incubation of either test compounds or the drug vehicle (DMSO) with ring-stage synchronized parasite cultures, as previously described. Stock solutions of the test compounds, as well as of the positive control compound chloroquine, were prepared in DMSO and diluted to test concentrations in complete malaria culture medium (CMCM), i.e., 1640 RPMI medium supplemented with 25 mM HEPES, 2.4 mM L-glutamine, 50 µg/mL gentamicin, 0.5% w/v Albumax, 11 mM glucose, 1.47 mM hypoxanthine, and 37.3 mM NaHCO3. Samples at tested concentration were then incubated with ring-stage synchronized cultures of P. falciparum NF54 at 2.5% hematocrit and at approximately 1% parasitemia in 96-well plates at 37 °C in a 5% CO2 and 5% O2 atmosphere. Forty-eight hours post incubation, parasite load was assessed by flow cytometry, upon staining with the DNA-specific dye SYBR green I. Approximately 100,000 events were analyzed in each flow cytometry measurement.

[4] = at 1 μM, DMSO = 100, in % (unit assumed)
[5] = at 10 μM, DMSO = 100, in % (unit assumed)

| Structure (SMILES) | activity at 1 µM ([1]; Huh-7, 48 h) | activity at 10 µM ([1]; Huh-7, 48 h) | CELL CONFLUENCY Ø screening (Huh-7 cell line; human, 46 h, 1 µM, pH 7) | CELL CONFLUENCY Ø screening (Huh-7 cell line; human, 46 h, 10 µM, pH 7) | other results |
| --- | --- | --- | --- | --- | --- |
| CCOc1cc(OCC)cc(C(=O)O[C@@H]2CN3Cc4c(cc5c(c4OC)OCO5)[C@@]24C=C[C@H](OC)C[C@@H]34)c1 [28o, 11-O-(3,5-Diethoxybenzoyl)ambelline] | 10.9% | 0.0467% | 97.15 | 52.09 | IC50 ([1]; Huh-7, replicate 1, unit (Table 1: µM), read-out: Antiplasmodial activity - IC50 determination, 1. measurement): 0.307 µM; IC50 ([1]; Huh-7, replicate 2, unit (Table 1: µM), read-out: Antiplasmodial activity - IC50 determination, 2. measurement): 0.326 µM; IC50 ([1]; hepatic stage, Huh-7 cells, parasite load 48 h post-infection, read-out: IC50 P. berghei): 0.316 ± 0.013 µM; viability at 24 h, 10 µM [2]: 56 ± 8%; 1. screening of cytotoxic potential, HepG2 cell line (HepG2 cells; human, 24 h, 10 µM): 65.61; 2. screening of cytotoxic potential, HepG2 cell line (HepG2 cells; human, 24 h, 10 µM): 51.07; 3. screening of cytotoxic potential, HepG2 cell line (HepG2 cells; human, 24 h, 10 µM): 51.54; Ø screening, HepG2 (sheet Graphs) (HepG2 cells; human, 24 h, 10 µM): 56.07 |
| COC1C=CC23c4cc5c(cc4CN(CC2OC(=O)C(C)C)C3C1)OCO5 (centres unmarked) [29b, 11-O-isobutanoylhaemanthamine] | 71.4% | 70.6% | – | – | CELL CONFLUENCY Ø screening (Huh-7 cell line; [4]): 106.7; CELL CONFLUENCY Ø screening (Huh-7 cell line; [5]): 111.9 |
| COc1cc(NC(C)CCCN)c2ncccc2c1 (centres unmarked) [Primaquine, reference compound] | – | – | – | – | IC50 ([1]; Huh-7, 48 h, read-out: IC50 P. berghei): 5.74 ± 0.86 µM |
| COc1ccc(C(=O)OC2CN3Cc4cc5c(cc4C24C=CC(OC)CC34)OCO5)cc1OC (centres unmarked) [29h, 11-O-(3,4-dimethoxybenzoyl)haemanthamine] | 90.4% | 46% | 101.7 | 100.3 | – |
| COC1C=CC23c4cc5c(cc4CN(CC2OC(=O)c2ccc([N+](=O)[O-])cc2)C3C1)OCO5 (centres unmarked) [29k, 11-O-(4-nitrobenzoyl)haemanthamine] | 63.6% | 71% | – | – | CELL CONFLUENCY Ø screening (Huh-7 cell line; [4]): 104.8; CELL CONFLUENCY Ø screening (Huh-7 cell line; [5]): 91.29 |
| CCC(=O)OC1CN2Cc3cc4c(cc3C13C=CC(OC)CC23)OCO4 (centres unmarked) [29a, 11-O-propionylhaemanthamine] | 87.6% | 71.9% | – | – | CELL CONFLUENCY Ø screening (Huh-7 cell line; [4]): 95.58; CELL CONFLUENCY Ø screening (Huh-7 cell line; [5]): 90.95 |
| COc1ccccc1C(=O)OC1CN2Cc3cc4c(cc3C13C=CC(OC)CC23)OCO4 (centres unmarked) [29e, 11-O-(2-methoxybenzoyl)haemanthamine] | 67.6% | 28.8% | 124.9 | 167.5 | – |
| COc1cccc2c1C(=O)c1c(O)c3c(c(O)c1C2=O)C[C@@](O)(C(=O)CO)C[C@@H]3O[C@H]1C[C@H](N)[C@H](O)[C@H](C)O1 [Doxorubicine, reference compound] | – | – | – | – | viability at 24 h, 10 µM ([2]; HepG2 cells, c = 10 µM, 24 h, MTT, read-out: HepG2 % of cell viability compared to non-treated control (100%)): 66 ± 8%; Ø screening, HepG2 (sheet Graphs) (HepG2 cells; c = 10 μM, DMSO = 100, in %): 65.91; 1. screening of cytotoxic potential, HepG2 cell line (HepG2 cells; c = 10 μM, replicate 1, in %): 62.5; 2. screening of cytotoxic potential, HepG2 cell line (HepG2 cells; c = 10 μM, replicate 2, in %): 75.09; 3. screening of cytotoxic potential, HepG2 cell line (HepG2 cells; c = 10 μM, replicate 3, in %): 60.13 |
| COC1C=CC23c4cc5c(cc4CN(CC2OC(=O)c2ccc(C)cc2)C3C1)OCO5 (centres unmarked) [29d, 11-O-(4-methylbenzoyl)haemanthamine] | 47.8% | 29% | 120.6 | 113.7 | – |
| CCN(CC)CCCC(C)Nc1ccnc2cc(Cl)ccc12 (centres unmarked) [CQ, chloroquine, reference compound] | – | – | – | – | Ø screening, blood stage parasite load ([3]; at 10 nM): 8.54; Ø screening, blood stage parasite load ([3]; at 500 nM): 2.057; Ø screening, blood stage parasite load ([3]; at 100 nm): 2.187 |
| COc1cccc(C(=O)OC2CN3Cc4cc5c(cc4C24C=CC(OC)CC34)OCO5)c1 (centres unmarked) [29f, 11-O-(3-methoxybenzoyl)haemanthamine] | 76.1% | 29.8% | – | – | CELL CONFLUENCY Ø screening (Huh-7 cell line; [4]): 130.9; CELL CONFLUENCY Ø screening (Huh-7 cell line; [5]): 134.6 |
| COc1ccc(C(=O)OC2CN3Cc4cc5c(cc4C24C=CC(OC)CC34)OCO5)cc1 (centres unmarked) [29g, 11-O-(4-methoxybenzoyl)haemanthamine] | 49.1% | 42.6% | 95.31 | 88.51 | – |
| COC1C=CC23c4cc5c(cc4CN(CC2OC(=O)c2cccc(C)c2)C3C1)OCO5 (centres unmarked) [29c, 11-O-(3-methylbenzoyl)haemanthamine] | 96.8% | 28.3% | 124.3 | 135.7 | – |
| COc1cc(OC)cc(C(=O)OC2CN3Cc4cc5c(cc4C24C=CC(OC)CC34)OCO5)c1 (centres unmarked) [29i, 11-O-(3,5-dimethoxybenzoyl)haemanthamine] | 64% | 27.5% | 123.1 | 120.8 | – |
| COC1C=CC23c4cc5c(cc4CN(CC2OC(=O)c2cccc([N+](=O)[O-])c2)C3C1)OCO5 (centres unmarked) [29j, 11-O-(3-nitrobenzoyl)haemanthamine] | 78.2% | 48.5% | 100.8 | 94.5 | – |
